Results as given in patent US20250082656A1, “DOSAGE REGIMENS FOR TREATMENT OF DENGUE INFECTION” (Atea Pharmaceuticals, Inc., priority 2022, published 2025).

How the values were obtained:
[1] = Plasma PK after single oral dose of AT-752, rats; type: in vivo, SD rats; conditions: Rat, single oral AT-752 300 mg/kg
Procedure: (§1) Male SD rats were administered 300 mg/kg Compound 2 (AT-752). Blood samples were collected up to 24 hrs. post dose, plasma separated and analyzed for Compound 1 (AT-281), Compound 3 (AT-551), and Compound 6 (AT-273) by LC-MS/MS. Data are express as mean+/−SD (n=3-5/time point). The x-axis is time post the dose measured in hours and the y-axis is the plasma concentration of the metabolites measured in nanomoles/mL). The experimental procedure is provided in Example 14.
Male naïve SD rats (Beijing Vital River Laboratory Animals Co. Ltd., China) were administered a dose of AT-752 at 300 mg/kg in 40% PEG400, 10% solutol HS15, 50% 100 mM citrate buffer, pH 4.5 (v/v) by oral gavage. Blood samples (n=4) were collected at 1, 2, 4, 8, 12 and 24 h post-dose, plasma separated and stored at −70° C. […] For PBMCs, nine male naïve SD rats were administered a dose of Compound 2 (AT-752) (at a Compound 1 (AT-281) equivalent dose of 300 mg/kg) by oral gavage.
(§2) Pharmacokinetic measurements for FIGS. 11, 12, 13, 14, and 15 were analyzed using LC-MS/MS according to the protocol described herein. Plasma samples were prepared for MS analysis by adding internal standards and extracting with 20 volumes chilled ACN. After vortex (800 rpm for 10 min) and centrifugation (4,000 rpm, 15 min, 4° C.), the supernatants (25 μL) were diluted with an equal volume of H2O, mixed and spun again. After adding internal standards, the PBMC samples (10^6 cells) were lyzed with 300 μL MeOH/H2O (70:30, v/v) and 40 mM dibutylammonium acetate (DBAA), mixed by vortex and centrifuged (12,000 rpm, 15 min, 4° C.). Aliquots of the supernatants (35 μL) were dried under nitrogen and reconstituted in H2O, then mixed and spun again. […] A binary nonlinear gradient with mobile phases A (0.1% formic acid in water) and B (0.1% formic acid in ACN) were used to elute samples at 0.8 mL/min, with a run time of 5 min. […] A binary nonlinear gradient with mobile phases A (0.001% NHr H2O, 0.18 mM DBAA in H2O) and B (10 mM N,N-dimethyl-hexylamine, 3 mM NH4OAc in ACN/H2O (50.50, v/v)) were used to elute samples at 0.5 mL/min, with a run time of 3 min. Standards in 50% MeOH were used for calibration. […] Internal standards (ISS) as described previously (Good et al., Preclinical evaluation of AT-527, a novel guanosine nucleotide prodrug with potent, pan-genotypic activity against hepatitis C virus. PLos One 15:e02271045) were used to correct for variations in recovery.
(§3) Data analysis of the pharmacokinetic data generated according to Example 21 and presented in FIGS. 11, 12, 13, 14, and 15 was analyzed according to the procedure described herein. Plasma concentrations of Compound 1 (AT-281), Compound 3 (AT-551) and Compound 6 (AT-273) were subjected to non-compartmental pharmacokinetic analysis using Phoenix WinNonlin software (version 6.3 or above, Pharsight, Mountain View, CA). The linear/log trapezoidal rule was applied in obtaining the PK parameters.

[2] = Multiple-dose tolerability and steady state exposure, mice; type: in vivo, CD-1 mice
Procedure: There were no adverse clinical signs observed in the mice so the multiple doses of the prodrug were well-tolerated.
Separately, two mouse studies with multiple dosing were conducted. First, 9 naïve CD-1 mice were administered Compound 1 (AT-281) in 100 mM citrate buffer, pH 4.5 by oral gavage at 500 mg/kg for the first dose and, 4 h later, 250 mg/kg for the second dose. Blood samples were collected, 3 animals per time point, at 4 (before the second dosing), 8 and 16 h post the first dose, and PBMCs isolated. Secondly, 9 naïve CD-1 mice were administered Compound 1 (AT-281) by oral gavage at 1000 mg/kg for the first dose, and then 4 h later, they were given twice daily doses 12 hours apart for 3 consecutive days at 500 mg/kg. Blood samples were collected, 3 animals per time point, at 16 (received one 500 mg/kg dose), 40 (received three 500 mg/kg doses) and 76 h post first dose (received six 500 mg/kg doses), and PBMCs were isolated.
as §2

[3] = Plasma PK after single oral dose of AT-752, mice; conditions: Mouse, single oral AT-752 420 mg/kg
[4] = Plasma PK after single oral dose of AT-752, monkeys; type: in vivo, cynomolgus monkeys; conditions: Monkey, single oral AT-752 300 mg/kg
Procedure: as §1, with “cynomolgus monkeys” for “SD rats”
Male non-naïve cynomolgus monkeys (Hainan Jingang Laboratory Animal Co. Ltd., China), at least 2 kg body weight, were individually housed during the study in stainless steel mesh cages, provided ad libitum access to RO water, fed twice daily (except on the day of dosing when they were fed once) with ˜60 g Certified Monkey Diet each feed (Beijing Vital Keao Feed Co., Ltd., Beijing, China) and given daily treats of fresh fruit. They (n=5) were administered a dose of Compound 2 (AT-752) at 300 mg/kg in 40% PEG400, 10% solutol HS15, 50% 100 mM citrate buffer, pH 4.5 (v/v) by oral gavage, and blood samples (˜0.5 mL) were collected at 1, 2, 4, 8, 12 and 24 h post dose. Plasma was separated at each time point for pharmacokinetics, and stored at −70° C. […] Separately, three monkeys were given an oral dose of Compound 2 (AT-752) as powder in capsules at 60 mg/kg ([…] (AT-281) equivalent dose of 55 mg/kg), and blood samples collected at 12, 24 and 48 h post dose.
as §2, §3

[5] = 1000 mg/kg loading then 500 mg/kg twice a day for 3 days, 12 h after the sixth 500 mg/kg dose
[6] = 1000 mg/kg loading then 500 mg/kg twice a day, 12 h after the first 500 mg/kg dose

SMILES | plasma concentration at 1 h, the earliest time point measured [1] | tolerability of multiple doses (adverse clinical signs) ([2]; 1000 mg/kg loading then 500 mg/kg twice a day for 3 days) | AUC0-24 h [3] [µM·h] | Cmax [3] [nM] | Tmax [3] [h] | time present in plasma [4] | AUC0-24 h ([4]; plasma) [µM·h] | Cmax ([4]; plasma) [nM] | Tmax ([4]; plasma) [h] | concentration of AT-9010 in pooled PBMCs [2, 5] [pmol/10^6 cells] | concentration of AT-9010 in pooled PBMCs [2, 6] [pmol/10^6 cells] | AUC0-24 h ([1]; plasma) [µM·h] | Cmax ([1]; plasma) [nM] | Tmax ([1]; plasma) [h] | plasma concentration [2, 5] [nM] | plasma concentration [2, 6] [nM]
CNc1nc(N)nc2c1ncn2[C@@H]1O[C@H](CO[P@](=O)(N[C@@H](C)C(=O)OC(C)C)Oc2ccccc2)[C@@H](O)[C@@]1(C)F [Compound 1, isopropyl ((R)-(((2R,3R,4R,5R)-5-(2-amino-6-(methylamino)-9H-purin-9-yl)-4-fluoro-3-hydroxy-4-methyltetrahydrofuran-2-yl)methoxy)(phenoxy)phosphoryl)-L-alaninate] | below the limit of quantitation | well-tolerated | 4.2 ± 0.5 | 2600 ± 300 | 0.8 ± 0.3 | more than 4 h | 9.5 ± 3.7 | 3700 ± 1500 | 1 | – | – | – | – | – | – | –
C[C@@]1(F)[C@H](O)[C@@H](COP(=O)(O)OP(=O)(O)OP(=O)(O)O)O[C@H]1n1cnc2c(=O)[nH]c(N)nc21 [Compound 5] | – | – | – | – | – | – | – | – | – | 0.575 | 0.421 | – | – | – | – | –
C[C@@]1(F)[C@H](O)[C@@H](CO)O[C@H]1n1cnc2c(=O)[nH]c(N)nc21 [Compound 6, 2′-fluoro-2′-C-methylguanosine] | – | – | 18.8 ± 6.0 | 2300 ± 700 | – | – | 7.8 ± 2.4 | 800 ± 200 | – | – | – | 22.9 | 1300 ± 300 | 8.0 ± 0.0 | 1350 ± 860 | 670 ± 120
